Experimental data: patent US20230210984A1, “ADOPTIVE IMMUNOTHERAPY” (The Council of the Queensland Institute of Medical Research, priority 2019, published 2023)

How the values were obtained:
Type in all cases: cell-based
SNU719 and C666.1 cells [1] = experiment: Flow cytometry of Ki67 and active Caspase 3 after individual and dual treatment; settings: dual treatment with HLA matched T cells vs individual treatment, 16 hours
Description: (§1) FIG. 11: Impact of dual combination of MEK1/2 inhibitor and HLA matched allogeneic EBV specific T cells. (A) Cell growth curve highlight the rate of cellular proliferation of SNU719 (upper panel) and C666.1 (lower panel) observed in the presence of HLA-matched EBV specific T cells (effector-to-target ratio of 25:1) and selumatinib (1 μM) individually and in combination, measured using Xcellegence. The effect of individual and dual combination on (B) cell proliferation based on Ki67 and (C) cell death based on active Caspase-3 of SNU719 expression (upper panel) and C666.1 (lower panel), performed using flow cytometry. The data are represented as the mean±SD from three independent experiments. P-values were calculated using one-way ANOVA: ns=not significant, *p<0.05, **p<0.01, ***p<0.001 and ****p<0.0001.
FIG. 15: Impact of dual combination of JQ1 inhibitor and HLA matched allogeneic EBV-specific T cells. The cell viability measured by MTS assay highlighting the impact of a HLA-matched EBV specific T cells at the effector-to-target ratio of 25:1 and JQ1 (2.5 μM) in suppressing cellular growth individually and in combination after 48 hrs of incubation with indicated (A) gastric (SNU719, YCCLE1 (upper panel)) and nasopharyngeal cancer cells (C17, C666.1 (lower panel)). (B) Cell growth curve highlight the rate of cellular proliferation of SNU719 (upper panel) and C666.1 (lower panel) observed in the presence of HLA-matched EBV specific T cells (effector-to-target ratio of 25:1) and JQ1 (2.5 μM) individually and in combination, measured using Xcellegence. The effect of individual and dual combination on (C) cell proliferation based on Ki67 and (D) cell death based on active Caspase-3 of SNU719 expression (upper panel) and C666.1 (lower panel), performed using flow cytometry. The data are represented as the mean±SD from three independent experiments. P-values were calculated using one-way ANOVA: ns=not significant, *p<0.05, **p<0.01, ***p<0.001 and ****p<0.0001.
Further, to validate the impact of the combination on the cell proliferation of the EBV-associated cancer cells, we challenged SNU719 and C666.1 cells with individual and dual combination using Xcellegence. […] We also performed phenotypic characterization, using flow cytometry, of SNU719 and C666.1 cells after 16 hours of individual and dual treatment in vitro.
Similarly, we targeted MYC-dependent cancer intrinsic pathway using JQ1 inhibitor by first determining the IC50 value of the inhibitor across nasopharyngeal and gastric cancer cell lines (with drug concertation ranging from 0.5 μM-10 μM). […]

SNU719 cells = experiment: Annexin V binding assay, inhibitor combined with EBV-specific T cells; settings: combination with EBV-specific T cells (25:1) vs individual treatment, 48 hrs; AZD6244 0.5 μM, trematinib 1.0 μM, JQ1 5.0 μM
Description: We treated SNU719 cells (gastric cancer cells) with MEK1/2 inhibitor (AZD6244 (or selumetanib) and trematinib) at concentration of 0.5 μM and 1.0 μM respectively, as individual treatment or in combination with EBV-specific T cells (25:1) as effector to target ratio.
We treated SNU719 cells with JQ1 inhibitor at concentration of 5.0 μM, as individual treatment or in combination with EBV-specific T cells (25:1) as effector to target ratio.

[2] = system: C17, C666.1, SNU719 and YCCLE1 cells; experiment: MTS cell viability, inhibitor combined with HLA matched allogeneic EBV-specific T cells (Example 3); settings: combination with HLA matched EBV-specific T cells 25:1 vs individual treatment, 48 hrs; MEK1/2 inhibitors 1 μM, JQ1 2.5 μM
Description: The data are represented as the mean±SD from three independent experiments. P-values were calculated using one-way ANOVA: ns=not significant, *=p<0.05, **=p<0.01, ***=p<0.001 and ****=p<0.0001.
The data are represented as the mean±SD from three independent experiments.

SNU719 and C666.1 cells [3] = experiment: Xcellegence cell growth curve (Example 3); settings: dual combination with HLA matched T cells 25:1 vs individual treatment, selumatinib 1 μM, JQ1 2.5 μM
Description: as §1
FIG. 15: Impact of dual combination of JQ1 inhibitor and HLA matched allogeneic EBV-specific T cells. The cell viability measured by MTS assay highlighting the impact of a HLA-matched EBV specific T cells at the effector-to-target ratio of 25:1 and JQ1 (2.5 μM) in suppressing cellular growth individually and in combination after 48 hrs of incubation with indicated (A) gastric (SNU719, YCCLE1 (upper panel)) and nasopharyngeal cancer cells (C17, C666.1 (lower panel)). […] P-values were calculated using one-way ANOVA: ns=not significant, *p<0.05, **p<0.01, ***p<0.001 and ****p<0.0001. […]

SNU719 and C666.1 cells [4] = experiment: MTS cell viability with HLA-mismatched versus HLA-matched T cells and inhibitors; settings: for effect of HLA-matched vs HLA-mismatched T cells in presence of inhibitor: MEK1/2 inhibitors 1 μM, JQ1 2.5 μM, T cells 25:1; for cell viability: 48 hrs
Description: FIG. 12: Combination of MEK1/2 inhibitors with HLA mismatched allogeneic-specific T cells. […] The data are represented as the mean±SD from three independent experiments. P-values were calculated using one-way ANOVA: ns=not significant, *=p<0.05, **=p<0.01, ***=p<0.001 and ****=p<0.0001.
FIG. 16: Combination of JQ1 inhibitors with HLA mismatched all T cells. […] The data are represented as the mean±SD from three independent experiments. P-values were calculated using one-way ANOVA: ns=not significant, *=p<0.05, **=p<0.01, ***=p<0.001 and ****=p<0.0001.
Next, we wanted to determine the specificity of the combination and as such we challenged SNU719 and C666.1 cells with HLA-mismatched allogeneic T cells alongside MEK1/2 inhibitors (both selumetanib and trematinib), individually and in combination.
Next, we wanted to determine the specificity of the combination and as such we challenged SNU719 and C666.1 cells with HLA-mismatch allogeneic T cells alongside JQ1 inhibitor individually and in combination.

[5] = combination with HLA-mismatch allogeneic T cells 25:1 vs DMSO treated control
[6] = combination with HLA-mismatch allogeneic T cells 25:1 vs inhibitor alone

SMILES | cell death (Active Caspase 3 staining) (SNU719 and C666.1 cells [1]) | cell proliferation (Ki67+ staining) (SNU719 and C666.1 cells [1]) | binding of Annexin V among SNU719 cells (SNU719 cells) | cell viability [2] | rate of cell death (Xcellegence) (SNU719 and C666.1 cells [3]) | effect of HLA-matched vs HLA-mismatched T cells in presence of inhibitor (SNU719 and C666.1 cells [4]) | cell viability (SNU719 and C666.1 cells [4]; [5]) | cell viability (SNU719 and C666.1 cells [4]; [6])
Cn1cnc2c(F)c(Nc3ccc(Br)cc3Cl)c(C(=O)NOCCO)cc21 [selumetanib] | significant cell death | significant loss of cell proliferation | significantly higher binding of Annexin V | significantly reduced | faster cell death | significantly amplified | significant reduction in cell viability | no significant reduction in cell viability
Cc1sc2c(c1C)C(c1ccc(Cl)cc1)=N[C@@H](CC(=O)OC(C)(C)C)c1nnc(C)n1-2 [JQ1] | significant cell death | significant loss of cell proliferation | significantly higher binding of Annexin V | significantly reduced | faster cell death | significantly amplified | significant reduction in cell viability | no significant reduction in cell viability
